Measurements published in ChEMBL document CHEMBL1127074, “Novel hypotensive agents from Verbesina caracasana. 2. Synthesis and pharmacology of caracasanamide” (1993).
Several values for one entry are separate records, joined by “and”; a condition that tells them apart may be missing. Identical values can stand only once.

Legend:
[1] = test system: Rattus norvegicus; assay: Tested for the change in systolic blood pressure administered at 1600 ug/kg intravenously in anesthetized rats in presence of hexamethonium (5 mg/kg) (p<0.05); format: functional, Artery
[2] = test system: Rattus norvegicus; assay: Tested for the change in systolic blood pressure administered at 800 ug/kg intravenously in anesthetized rats; format: functional, Artery
[3] = test system: Rattus norvegicus; assay: Change in heart rate administered at 1600 ug/kg iv in anesthetized rats in presence of propranolol (3 mg/kg) (p<0.05); format: functional
[4] = test system: Rattus norvegicus; assay: Tested for the change in diastolic blood pressure administered at 1600 ug/kg iv in anesthetized rats in presence of propranolol (3 mg/kg); format: functional, Artery
[5] = test system: Rattus norvegicus; assay: Tested for the change in systolic blood pressure administered at 100 ug/kg intravenously in anesthetized rats; format: functional, Artery
[6] = test system: Rattus norvegicus; assay: Maximum rate of rise of the left ventricular isovolumetric pressure (dP/dt) administered at 3200 ug/kg iv in anesthetized rats; format: functional, Heart left ventricle
[7] = test system: Rattus norvegicus; assay: Tested for the change in diastolic blood pressure administered at 3200 ug/kg intravenously in anesthetized rats; format: functional, Artery
[8] = test system: Rattus norvegicus; assay: Tested for the change in systolic blood pressure administered at 3200 ug/kg intravenously in anesthetized rats; format: functional, Artery
[9] = test system: Rattus norvegicus; assay: Tested for the change in diastolic blood pressure administered at 800 ug/kg iv in anesthetized rats in presence of phentolamine (2 mg/kg); format: functional, Artery
[10] = test system: Rattus norvegicus; assay: Maximum rate of rise of the left ventricular isovolumetric pressure administered at 6400 ug/kg iv in anesthetized rats in presence of […] (3 mg/kg) (p<0.05); format: functional, Heart left ventricle
[11] = test system: Rattus norvegicus; assay: Maximum rate of rise of the left ventricular isovolumetric pressure administered at 3200 ug/kg iv in anesthetized rats in presence of hexamethonium (5 mg/kg) (p<0.05); format: functional, Heart left ventricle
[12] = test system: Rattus norvegicus; assay: Tested for the change in systolic blood pressure administered at 100 ug/kg intravenously in anesthetized rats in presence of spinalization under vagotomy; format: functional, Artery
[13] = test system: Rattus norvegicus; assay: Tested for the change in diastolic blood pressure administered at 100 ug/kg intravenously in anesthetized rats; format: functional, Artery
[14] = test system: Rattus norvegicus; assay: Tested for the change in diastolic blood pressure administered at 800 ug/kg iv in anesthetized rats in presence of propranolol (3 mg/kg); format: functional, Artery
[15] = test system: Rattus norvegicus; assay: Change in heart rate administered at 100 ug/kg iv in anesthetized rats in presence of spinalization under vagotomy; format: functional
[16] = test system: Rattus norvegicus; assay: Maximum rate of rise of the left ventricular isovolumetric pressure (dP/dt) administered at 100 ug/kg iv in anesthetized rats; format: functional, Heart left ventricle
[17] = test system: Rattus norvegicus; assay: Change in respiratory frequency administered at 100 ug/kg iv in anesthetized rats; format: functional
[18] = test system: Rattus norvegicus; assay: Maximum rate of rise of the left ventricular isovolumetric pressure administered at 4.12 uM/kg iv in anesthetized rats; format: functional, Heart left ventricle
[19] = test system: Rattus norvegicus; assay: Maximum rate of rise of the left ventricular isovolumetric pressure administered at 3200 ug/kg iv in anesthetized rats in presence of phentolamine (2 mg/kg); format: functional, Heart left ventricle
[20] = test system: Rattus norvegicus; assay: Tested for the change in diastolic blood pressure administered at 200 ug/kg intravenously in anesthetized rats; format: functional, Artery
[21] = test system: Rattus norvegicus; assay: Change in respiratory frequency administered at 3200 ug/kg iv in anesthetized rats; format: functional
[22] = test system: Rattus norvegicus; assay: Change in heart rate administered at 800 ug/kg iv in anesthetized rats in presence of phentolamine (2 mg/kg); format: functional
[23] = test system: Rattus norvegicus; assay: Change in heart rate administered at 3200 ug/kg iv in anesthetized rats in presence of hexamethonium (5 mg/kg) (p<0.05); format: functional
[24] = test system: Rattus norvegicus; assay: Tested for the change in diastolic blood pressure administered at 3200 ug/kg iv in anesthetized rats in presence of hexamethonium (5 mg/kg) (p<0.05); format: functional, Artery
[25] = test system: Rattus norvegicus; assay: Maximum rate of rise of the left ventricular isovolumetric pressure (dP/dt) administered at 800 ug/kg iv in anesthetized rats; format: functional, Heart left ventricle
[26] = test system: Rattus norvegicus; assay: Change in heart rate administered at 6400 ug/kg iv in anesthetized rats in presence of hexamethonium (5 mg/kg) (p<0.05); format: functional
[27] = test system: Rattus norvegicus; assay: Tested for the change in systolic blood pressure administered at 3200 ug/kg intravenously in anesthetized rats in presence of phentolamine (2 mg/kg); format: functional, Artery
[28] = test system: Rattus norvegicus; assay: Tested for change in systolic blood pressure administered at 4.12 uM/kg iv in anesthetized rats; format: functional, Artery
[29] = test system: Rattus norvegicus; assay: Change in heart rate administered at 200 ug/kg iv in anesthetized rats in presence of spinalization under vagotomy; format: functional
[30] = test system: Rattus norvegicus; assay: Maximum rate of rise of the left ventricular isovolumetric pressure administered at 1600 ug/kg iv in anesthetized rats in presence of […] (3 mg/kg) (p<0.05); format: functional, Heart left ventricle
[31] = test system: Rattus norvegicus; assay: Tested for the change in systolic blood pressure administered at 1600 ug/kg intravenously in anesthetized rats; format: functional, Artery
[32] = test system: Rattus norvegicus; assay: Maximum rate of rise of the left ventricular isovolumetric pressure administered at 6400 ug/kg iv in anesthetized rats in presence of hexamethonium (5 mg/kg) (p<0.05); format: functional, Heart left ventricle
[33] = test system: Rattus norvegicus; assay: Tested for the change in systolic blood pressure administered at 800 ug/kg intravenously in anesthetized rats in presence of hexamethonium (5 mg/kg) (p<0.05); format: functional, Artery
[34] = test system: Rattus norvegicus; assay: Tested for the change in diastolic blood pressure administered at 6400 ug/kg intravenously in anesthetized rats; format: functional, Artery
[35] = test system: Rattus norvegicus; assay: Tested for the change in systolic blood pressure administered at 100 ug/kg iv in anesthetized rats in presence of spinalization under vagotomy; format: functional, Artery
[36] = test system: Rattus norvegicus; assay: Tested for the change in systolic blood pressure administered at 50 ug/kg intravenously in anesthetized rats; format: functional, Artery
[37] = test system: Rattus norvegicus; assay: Change in heart rate administered at 1600 ug/kg iv in anesthetized rats in presence of hexamethonium (5 mg/kg) (p<0.05); format: functional
[38] = test system: Rattus norvegicus; assay: Tested for the change in diastolic blood pressure administered at 400 ug/kg intravenously in anesthetized rats; format: functional, Artery
[39] = test system: Rattus norvegicus; assay: Change in respiratory frequency administered at 1600 ug/kg iv in anesthetized rats; format: functional
[40] = test system: Rattus norvegicus; assay: Tested for the change in diastolic blood pressure administered at 1600 ug/kg intravenously in anesthetized rats; format: functional, Artery
[41] = test system: Rattus norvegicus; assay: Tested for the change in systolic blood pressure administered at 400 ug/kg intravenously in anesthetized rats; format: functional, Artery
[42] = test system: Rattus norvegicus; assay: Change in heart rate administered at 6400 ug/kg iv in anesthetized rats in presence of propranolol (3 mg/kg) (p<0.05); format: functional
[43] = test system: Rattus norvegicus; assay: Tested for the change in systolic blood pressure administered at 200 ug/kg intravenously in anesthetized rats; format: functional, Artery
[44] = test system: Rattus norvegicus; assay: Tested for the change in systolic blood pressure administered at 200 ug/kg intravenously in anesthetized rats in presence of spinalization under vagotomy; format: functional, Artery

SMILES: COc1ccc(/C=C/C(=O)NCCCC/N=C(\N)NCC=C(C)C)cc1OC
- Blood pressure [1]: -8 mmHg
- Blood pressure [2]: -17 mmHg and -21%
- Heart rate [3]: 7 beats min-1
- Blood pressure [4]: -20 mmHg
- Blood pressure [5]: -6 mmHg and -8%
- BP [6]: 55%
- dp/dt [6]: 2984 mmHg s-1
- Blood pressure [7]: -29 mmHg and -47%
- Blood pressure [8]: -25 mmHg and -29%
- Blood pressure [9]: -19 mmHg
- dp/dt [10]: 853 mmHg s-1
- dp/dt [11]: 1124 mmHg s-1
- Blood pressure [12]: 0 mmHg
- Blood pressure [13]: -6 mmHg and -9%
- Blood pressure [14]: -13 mmHg
- Heart rate [15]: 0 beats min-1
- BP [16]: 3%
- dp/dt [16]: 141 mmHg s-1
- Frequency [17]: 9 beats min-1 and 8%
- dP/dtmax [18]: 3000 mmHg/s
- dp/dt [19]: 2627 mmHg s-1
- Blood pressure [20]: -10 mmHg and -16%
- Frequency [21]: -41 beats min-1 and -39%
- Heart rate [22]: 17 beats min-1
- Heart rate [23]: 9 beats min-1
- Blood pressure [24]: -17 mmHg
- BP [25]: 41%
- dp/dt [25]: 2140 mmHg s-1
- Heart rate [26]: 12 beats min-1
- Blood pressure [27]: -37 mmHg
- Blood pressure [28]: -21 mmHg
- Heart rate [29]: 0 beats min-1
- dp/dt [30]: 520 mmHg s-1
- Blood pressure [31]: -21 mmHg and -26%
- dp/dt [32]: 1447 mmHg s-1
- Blood pressure [33]: -5 mmHg
- Blood pressure [34]: -31 mmHg and -48%
- Blood pressure [35]: 0 mmHg
- Blood pressure [36]: -4 mmHg and -5%
- Heart rate [37]: 10 beats min-1
- Blood pressure [38]: -14 mmHg and -23%
- Frequency [39]: 23 beats min-1 and 21%
- Blood pressure [40]: -18 mmHg and -29%
- Blood pressure [41]: -15 mmHg and -18%
- Heart rate [42]: 11 beats min-1
- Blood pressure [43]: -11 mmHg and -14%
- Blood pressure [44]: 0 mmHg
